pKi: −log10 of the molar value.
Assays:
[1] = biological target: T1, 5-hydroxytryptamine receptor 2C (Rattus norvegicus, UniProt P08909)
T1 sequence (P08909 whole entry): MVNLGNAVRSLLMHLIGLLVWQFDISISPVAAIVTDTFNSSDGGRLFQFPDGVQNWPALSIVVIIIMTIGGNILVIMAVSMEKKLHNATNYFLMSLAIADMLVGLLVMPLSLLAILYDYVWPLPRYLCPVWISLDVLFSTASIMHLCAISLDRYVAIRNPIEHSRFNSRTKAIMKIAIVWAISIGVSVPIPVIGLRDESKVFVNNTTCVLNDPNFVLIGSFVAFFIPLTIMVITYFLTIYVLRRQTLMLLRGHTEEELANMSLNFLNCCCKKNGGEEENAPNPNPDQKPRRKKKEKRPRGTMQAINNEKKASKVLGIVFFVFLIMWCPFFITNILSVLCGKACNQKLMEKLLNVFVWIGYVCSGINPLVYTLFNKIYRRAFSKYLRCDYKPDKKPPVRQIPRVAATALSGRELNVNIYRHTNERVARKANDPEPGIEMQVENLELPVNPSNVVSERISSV

[2] = biological target: 5-hydroxytryptamine receptor 2B (Rattus norvegicus, UniProt P30994)
Chain of 5-hydroxytryptamine receptor 2B (P30994 whole entry): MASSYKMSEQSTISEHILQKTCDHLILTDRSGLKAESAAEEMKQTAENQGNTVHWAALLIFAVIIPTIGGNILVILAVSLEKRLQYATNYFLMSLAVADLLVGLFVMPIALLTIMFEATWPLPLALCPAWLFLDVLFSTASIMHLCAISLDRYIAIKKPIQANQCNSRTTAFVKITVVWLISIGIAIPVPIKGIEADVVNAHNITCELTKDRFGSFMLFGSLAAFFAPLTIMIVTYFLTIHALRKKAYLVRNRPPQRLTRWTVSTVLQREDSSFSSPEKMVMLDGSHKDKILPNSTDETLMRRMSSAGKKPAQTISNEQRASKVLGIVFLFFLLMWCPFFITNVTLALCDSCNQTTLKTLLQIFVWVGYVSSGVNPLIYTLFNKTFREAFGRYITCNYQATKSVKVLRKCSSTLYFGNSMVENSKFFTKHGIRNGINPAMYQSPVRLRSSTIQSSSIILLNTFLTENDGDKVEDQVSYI

[3] = biological target: T2, 5-hydroxytryptamine receptor 2C (Homo sapiens, UniProt P28335)
T2 sequence (P28335 whole entry): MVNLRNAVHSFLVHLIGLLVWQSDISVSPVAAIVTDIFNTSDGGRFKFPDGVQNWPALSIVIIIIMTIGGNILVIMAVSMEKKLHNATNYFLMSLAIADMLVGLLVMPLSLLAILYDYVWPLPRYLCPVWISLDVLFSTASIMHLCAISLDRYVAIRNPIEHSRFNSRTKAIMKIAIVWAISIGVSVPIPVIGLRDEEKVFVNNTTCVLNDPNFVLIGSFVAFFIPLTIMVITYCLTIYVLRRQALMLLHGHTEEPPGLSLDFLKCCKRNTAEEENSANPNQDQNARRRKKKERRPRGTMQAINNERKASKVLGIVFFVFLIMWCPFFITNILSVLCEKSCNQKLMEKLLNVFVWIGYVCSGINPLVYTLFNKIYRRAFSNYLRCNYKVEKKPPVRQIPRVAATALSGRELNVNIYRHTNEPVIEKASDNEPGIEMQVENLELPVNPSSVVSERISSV

SMILES	pKi [1]	pKi [2]	pKi [3]
COC(=O)[C@@H]1[C@H]2C[C@H]3c4[nH]c5ccccc5c4CCN3C[C@@H]2CC[C@@H]1O [yohimbic acid methyl ester]	5.30	–	–
CC(N)Cc1c[nH]c2ccc(OCc3cccs3)cc12 (stereo not drawn) [NSC_5311036]	–	7.90	6.50

From BindingDB's records for doi:10.1111/j.1476-5381.1995.tb13240.x (Smithkline Beecham Pharmaceuticals, 1995)
